According to patent US20260132164A1, “PNU ANTHRACYCLINE DERIVATIVES AND METHODS OF USE THEREOF” (Merck Sharp & Dohme LLC, priority 2022, published 2026):

Test system: BxPC3
Assay: CellTiter-Glo 2.0 Cytotoxicity Assay
Assay type: cell-based
Settings: compound added day 1, read on day 4 or 5, 3000 cells/well
[1] = Homo sapiens, BXPC-3, CellTiter-Glo 2.0 luminescence

COc1cccc2c1C(=O)c1c(O)c3c(c(O)c1C2=O)C[C@@](O)(C(=O)NCCC(N)C(F)(F)F)C[C@@H]3O[C@H]1C[C@H]2[C@H](O[C@@H]3[C@@H](OC)OCCN32)[C@H](C)O1 (stereo partly shown) [Compound 73]
EC50 [1]: 0.2 nM

COc1cccc2c1C(=O)c1c(O)c3c(c(O)c1C2=O)C[C@@](O)(C(=O)NCCN(C)C(=O)C1CCNC1)C[C@@H]3O[C@H]1C[C@H]2[C@H](O[C@@H]3[C@@H](OC)OCCN32)[C@H](C)O1 (single isomer, unassigned) [Compound 49]
EC50 [1]: 31 nM

COc1cccc2c1C(=O)c1c(O)c3c(c(O)c1C2=O)C[C@@](O)(C(=O)N1CCNCC1)C[C@@H]3O[C@H]1C[C@H]2[C@H](O[C@@H]3[C@@H](OC)OCCN32)[C@H](C)O1 [Compound 68]
EC50 [1]: 8.1 nM

COc1cccc2c1C(=O)c1c(O)c3c(c(O)c1C2=O)C[C@@](O)(C(=O)NC[C@@H]1CNC(=O)C1)C[C@@H]3O[C@H]1C[C@H]2[C@H](O[C@@H]3[C@@H](OC)OCCN32)[C@H](C)O1 [Compound 86]
EC50 [1]: 0.39 nM

COc1cccc2c1C(=O)c1c(O)c3c(c(O)c1C2=O)C[C@@](O)(C(=O)N[C@H]1CCC[C@@H]1N)C[C@@H]3O[C@H]1C[C@H]2[C@H](O[C@@H]3[C@@H](OC)OCCN32)[C@H](C)O1 [Compound 80]
EC50 [1]: 14.1 nM

COc1cccc2c1C(=O)c1c(O)c3c(c(O)c1C2=O)C[C@@](O)(C(=O)NCCN(C)C(=O)C1CCNC1)C[C@@H]3O[C@H]1C[C@H]2[C@H](O[C@@H]3[C@@H](OC)OCCN32)[C@H](C)O1 (single isomer, unassigned) [Compound 50]
EC50 (CellTiter-Glo 2.0 luminescence): 20 nM

COc1cccc2c1C(=O)c1c(O)c3c(c(O)c1C2=O)C[C@@](O)(C(=O)NC1CCC1N)C[C@@H]3O[C@H]1C[C@H]2[C@H](O[C@@H]3[C@@H](OC)OCCN32)[C@H](C)O1 (stereo partly shown) [Compound 19]
EC50 (CellTiter-Glo 2.0 luminescence): 4 nM

COc1cccc2c1C(=O)c1c(O)c3c(c(O)c1C2=O)C[C@@](O)(C(=O)NCc1ccc(CN)cc1)C[C@@H]3O[C@H]1C[C@H]2[C@H](O[C@@H]3[C@@H](OC)OCCN32)[C@H](C)O1 [Compound 41]
EC50 [1]: 0.42 nM

COc1cccc2c1C(=O)c1c(O)c3c(c(O)c1C2=O)C[C@@](O)(C(=O)NCC(C)(C)N)C[C@@H]3O[C@H]1C[C@H]2[C@H](O[C@@H]3[C@@H](OC)OCCN32)[C@H](C)O1 [Compound 61, (2S,4S)—N-(2-amino-2-methylpropyl)-2,5,12-trihydroxy-7-methoxy-4-(((1S,3R,4aS,9S,9aR,10aS)-9-methoxy-1-methyloctahydro-1H-pyrano[4′,3′:4,5]oxazolo[2,3-c][1,4]oxazin-3-yl)oxy)-6,11-dioxo-1,2,3,4,6,11-hexahydrotetracene-2-carboxamide]
EC50 [1]: 8.7 nM

COc1cccc2c1C(=O)c1c(O)c3c(c(O)c1C2=O)C[C@@](O)(C(=O)NC[C@H]1CCNC1)C[C@@H]3O[C@H]1C[C@H]2[C@H](O[C@@H]3[C@@H](OC)OCCN32)[C@H](C)O1 [Compound 37]
EC50 [1]: 8 nM

COc1cccc2c1C(=O)c1c(O)c3c(c(O)c1C2=O)C[C@@](O)(C(=O)NCCCCN)C[C@@H]3O[C@H]1C[C@H]2[C@H](O[C@@H]3[C@@H](OC)OCCN32)[C@H](C)O1 [Compound 54]
EC50 [1]: 1.4 nM

COc1cccc2c1C(=O)c1c(O)c3c(c(O)c1C2=O)C[C@@](O)(C(=O)NCCN1CCC(N)C1=O)C[C@@H]3O[C@H]1C[C@H]2[C@H](O[C@@H]3[C@@H](OC)OCCN32)[C@H](C)O1 (stereo partly shown) [Compound 15]
EC50 [1]: 64 nM

COc1cccc2c1C(=O)c1c(O)c3c(c(O)c1C2=O)C[C@@](O)(C(=O)NCC12CC(N)(C1)C2)C[C@@H]3O[C@H]1C[C@H]2[C@H](O[C@@H]3[C@@H](OC)OCCN32)[C@H](C)O1 [Compound 84]
EC50 [1]: 0.61 nM

CNCCCNC(=O)[C@]1(O)Cc2c(O)c3c(c(O)c2[C@@H](O[C@H]2C[C@H]4[C@H](O[C@@H]5[C@@H](OC)OCCN54)[C@H](C)O2)C1)C(=O)c1c(OC)cccc1C3=O [Compound 38]
EC50 [1]: 9.1 nM

COc1cccc2c1C(=O)c1c(O)c3c(c(O)c1C2=O)C[C@@](O)(C(=O)N[C@H]1[C@@H]2CNC[C@@H]21)C[C@@H]3O[C@H]1C[C@H]2[C@H](O[C@@H]3[C@@H](OC)OCCN32)[C@H](C)O1 [Compound 35]
EC50 [1]: 0.97 nM

COc1cccc2c1C(=O)c1c(O)c3c(c(O)c1C2=O)C[C@@](O)(C(=O)NC[C@@H]1CCNC1)C[C@@H]3O[C@H]1C[C@H]2[C@H](O[C@@H]3[C@@H](OC)OCCN32)[C@H](C)O1 [Compound 58]
EC50 [1]: 3.9 nM

COc1cccc2c1C(=O)c1c(O)c3c(c(O)c1C2=O)C[C@@](O)(C(=O)N1C[C@@H]2CN[C@@H]2C1)C[C@@H]3O[C@H]1C[C@H]2[C@H](O[C@@H]3[C@@H](OC)OCCN32)[C@H](C)O1 [Compound 76]
EC50 [1]: 15 nM

COc1cccc2c1C(=O)c1c(O)c3c(c(O)c1C2=O)C[C@@](O)(C(=O)NCCNC(=O)[C@H](C)N)C[C@@H]3O[C@H]1C[C@H]2[C@H](O[C@@H]3[C@@H](OC)OCCN32)[C@H](C)O1 [Compound 7]
EC50 [1]: 13 nM

COc1cccc2c1C(=O)c1c(O)c3c(c(O)c1C2=O)C[C@@](O)(C(=O)N[C@@H]1CCC[C@H]1N)C[C@@H]3O[C@H]1C[C@H]2[C@H](O[C@@H]3[C@@H](OC)OCCN32)[C@H](C)O1 [Compound 71]
EC50 [1]: 8.4 nM

COc1cccc2c1C(=O)c1c(O)c3c(c(O)c1C2=O)C[C@@](O)(C(=O)N1CC(CN2CC(N)C2)C1)C[C@@H]3O[C@H]1C[C@H]2[C@H](O[C@@H]3[C@@H](OC)OCCN32)[C@H](C)O1 [Compound 10]
EC50 [1]: 124 nM

COc1cccc2c1C(=O)c1c(O)c3c(c(O)c1C2=O)C[C@@](O)(C(=O)NCC[C@H]1CCCN1)C[C@@H]3O[C@H]1C[C@H]2[C@H](O[C@@H]3[C@@H](OC)OCCN32)[C@H](C)O1 [Compound 45]
EC50 [1]: 0.6 nM

COc1cccc2c1C(=O)c1c(O)c3c(c(O)c1C2=O)C[C@@](O)(C(=O)N[C@H]1C[C@H](N)C1)C[C@@H]3O[C@H]1C[C@H]2[C@H](O[C@@H]3[C@@H](OC)OCCN32)[C@H](C)O1 [Compound 42]
EC50 [1]: 12 nM

COc1cccc2c1C(=O)c1c(O)c3c(c(O)c1C2=O)C[C@@](O)(C(=O)NCC1(F)CNC1)C[C@@H]3O[C@H]1C[C@H]2[C@H](O[C@@H]3[C@@H](OC)OCCN32)[C@H](C)O1 [Compound 36]
EC50 [1]: 0.42 nM

COc1cccc2c1C(=O)c1c(O)c3c(c(O)c1C2=O)C[C@@](O)(C(=O)NCCCN)C[C@@H]3O[C@H]1C[C@H]2[C@H](O[C@@H]3[C@@H](OC)OCCN32)[C@H](C)O1 [Compound 18]
EC50 [1]: 8.5 nM

COc1cccc2c1C(=O)c1c(O)c3c(c(O)c1C2=O)C[C@@](O)(C(=O)NCCN1CCNC1=O)C[C@@H]3O[C@H]1C[C@H]2[C@H](O[C@@H]3[C@@H](OC)OCCN32)[C@H](C)O1 [Compound 63]
EC50 [1]: 0.14 nM

COc1cccc2c1C(=O)c1c(O)c3c(c(O)c1C2=O)C[C@@](O)(C(=O)NCCCNCCCNC(=O)CN)C[C@@H]3O[C@H]1C[C@H]2[C@H](O[C@@H]3[C@@H](OC)OCCN32)[C@H](C)O1 [Compound 8]
EC50 [1]: 48 nM

COc1cccc2c1C(=O)c1c(O)c3c(c(O)c1C2=O)C[C@@](O)(C(=O)NC1CC2(CNC2)C1)C[C@@H]3O[C@H]1C[C@H]2[C@H](O[C@@H]3[C@@H](OC)OCCN32)[C@H](C)O1 [Compound 46]
EC50 [1]: 18 nM

COc1cccc2c1C(=O)c1c(O)c3c(c(O)c1C2=O)C[C@@](O)(C(=O)NCCN(C)C(=O)C1(N)CCCC1)C[C@@H]3O[C@H]1C[C@H]2[C@H](O[C@@H]3[C@@H](OC)OCCN32)[C@H](C)O1 [Compound 48]
EC50 [1]: 0.31 nM

COc1cccc2c1C(=O)c1c(O)c3c(c(O)c1C2=O)C[C@@](O)(C(=O)NC1CNC1)C[C@@H]3O[C@H]1C[C@H]2[C@H](O[C@@H]3[C@@H](OC)OCCN32)[C@H](C)O1 [Compound 27]
EC50 [1]: 39 nM

COc1cccc2c1C(=O)c1c(O)c3c(c(O)c1C2=O)C[C@@](O)(C(=O)N(C)CCN)C[C@@H]3O[C@H]1C[C@H]2[C@H](O[C@@H]3[C@@H](OC)OCCN32)[C@H](C)O1 [Compound 13]
EC50 [1]: 5.4 nM

COc1cccc2c1C(=O)c1c(O)c3c(c(O)c1C2=O)C[C@@](O)(C(=O)NCc1ccc(O)cc1)C[C@@H]3O[C@H]1C[C@H]2[C@H](O[C@@H]3[C@@H](OC)OCCN32)[C@H](C)O1 [Compound 78]
EC50 [1]: 0.056 nM

COc1cccc2c1C(=O)c1c(O)c3c(c(O)c1C2=O)C[C@@](O)(C(=O)NC[C@H]1CNC(=O)C1)C[C@@H]3O[C@H]1C[C@H]2[C@H](O[C@@H]3[C@@H](OC)OCCN32)[C@H](C)O1 [Compound 85]
EC50 [1]: 0.4 nM

COc1cccc2c1C(=O)c1c(O)c3c(c(O)c1C2=O)C[C@@](O)(C(=O)NCc1ccc(N)nc1)C[C@@H]3O[C@H]1C[C@H]2[C@H](O[C@@H]3[C@@H](OC)OCCN32)[C@H](C)O1 [Compound 72]
EC50 [1]: 0.08 nM

COc1cccc2c1C(=O)c1c(O)c3c(c(O)c1C2=O)C[C@@](O)(C(=O)N[C@H]1CC[C@@H](N)C1)C[C@@H]3O[C@H]1C[C@H]2[C@H](O[C@@H]3[C@@H](OC)OCCN32)[C@H](C)O1 [Compound 34]
EC50 [1]: 19 nM

COc1cccc2c1C(=O)c1c(O)c3c(c(O)c1C2=O)C[C@@](O)(C(=O)NCc1cnc(N)o1)C[C@@H]3O[C@H]1C[C@H]2[C@H](O[C@@H]3[C@@H](OC)OCCN32)[C@H](C)O1 [Compound 70]
EC50 [1]: 0.095 nM

COc1cccc2c1C(=O)c1c(O)c3c(c(O)c1C2=O)C[C@@](O)(C(=O)NC[C@H]1C[C@H](N)C1)C[C@@H]3O[C@H]1C[C@H]2[C@H](O[C@@H]3[C@@H](OC)OCCN32)[C@H](C)O1 [Compound 43]
EC50 [1]: 2.2 nM

COc1cccc2c1C(=O)c1c(O)c3c(c(O)c1C2=O)C[C@@](O)(C(=O)NCCO)C[C@@H]3O[C@H]1C[C@H]2[C@H](O[C@@H]3[C@@H](OC)OCCN32)[C@H](C)O1 [Compound 89]
EC50 [1]: 0.37 nM

COc1cccc2c1C(=O)c1c(O)c3c(c(O)c1C2=O)C[C@@](O)(C(=O)N1CC(CN2CC(NC(=O)[C@H](C)N)C2)C1)C[C@@H]3O[C@H]1C[C@H]2[C@H](O[C@@H]3[C@@H](OC)OCCN32)[C@H](C)O1 [Compound 11]
EC50 [1]: 822 nM

COc1cccc2c1C(=O)c1c(O)c3c(c(O)c1C2=O)C[C@@](O)(C(=O)N[C@H]1C[C@@H](N)C1)C[C@@H]3O[C@H]1C[C@H]2[C@H](O[C@@H]3[C@@H](OC)OCCN32)[C@H](C)O1 [Compound 53]
EC50 [1]: 7.7 nM

COc1cccc2c1C(=O)c1c(O)c3c(c(O)c1C2=O)C[C@@](O)(C(=O)NCCC(N)C(F)F)C[C@@H]3O[C@H]1C[C@H]2[C@H](O[C@@H]3[C@@H](OC)OCCN32)[C@H](C)O1 (stereo partly shown) [Compound 74]
EC50 [1]: 0.2 nM
